Data on one compound can be found in paper PMC8385015, “Tumour-on-chip microfluidic platform for assessment of drug pharmacokinetics and treatment response” (Communications Biology, 2021).

Several values for one entry are separate records, joined by “and”; a condition that tells them apart may be missing. Identical values can stand only once.

What all share (assay type): cell-based
Test [1] relates to SW620 spheroids. Kind of test: SW620 spheroid size/volume, microfluidic Ibidi chip mimicking mouse PK profile. How it is done:
Spheroid images were taken for each experimental endpoint (day 7) using a Leica DMI4000B microscope (Leica Microsystems) with brightfield (BF), phase-contrast and fluorescence filters. Each flow line used two chips, one for viability assays and second for immunofluorescence. Both chips were imaged in BF prior spheroid recovery. Hardware embedded microscope scale has been translated in Fiji ImageJ to evaluate spheroid area/volume. The average size for SW620 spheroids was evaluated by measuring spheroid projection area in bright-field images, based on a macro script designed in an open-source imaging software (Fiji ImageJ) (Supplementary Method 1). Spheroid volume was evaluated following radius deduction from the measured area.

For the next test, the system named is γH2AX. In words: γH2AX immunofluorescence in SW620 spheroids, microfluidic chip. Particulars: SN38 monotherapy, day 7. The source says: SN38 is a TOP1 inhibitor that that prevents relegation of the DNA strand by binding to TOP1–DNA complex and causes DNA double strand breaks (DSBs). Those DNA DSB lesions trigger activation of the ATM kinase for effective repair. Inhibition of ATM and consequent accumulation of unrepaired breaks leading to increased cell death provides the rationale for developing this combination for cancer treatment. […] Here, we tested whether different schedules lead to different activation of pharmacodynamic markers that are associated with DNA DSB damage, apoptosis and cell proliferation. The γ-H2AX associated foci accumulate in cells exposed to DBS inducing agents[18],[19]. These foci can be detected by immunostaining to determine their, size and morphology. However, spheroid imaging using a 20x objective on a CV7000 confocal microscope cannot accurately explore foci morphology, so we introduced customised ImageJ macros (described in “Methods” section, Supplementary Fig. 2 and Supplementary Method 1) to quantitate positive cells within a spheroid. The same method was applied to quantitate CC3-positive (apoptotic) cells, while normalisation by spheroid area was not required for Ki67, as this biomarker is present in all proliferating cells. […]
Supplementary Figure 2. Fluorescence image processing, per biomarker, using Fiji ImageJ custom-made macros […]

Test [2] deals with SW620 spheroids. Kind of test: SW620 spheroid viability (CellTiterGlo 3D), microfluidic Ibidi chip. The source says:
The tested schedules were designed to recapitulate mouse plasma PK profiles from similar schedules used in in vivo efficacy studies (Table 1) with a desire to reverse translate in vivo data and to evaluate the predictive ability of our microfluidic chip setup. […] We investigated changes in the spheroid volume, as well as viability using the CellTiterGlo assay. To evaluate whether our system could also be used to monitor treatment impact on pharmacodynamic biomarkers, we collected individual spheroids at the end of the treatment period and performed immunofluorescence analysis for γH2AX (DNA double strand break marker), cleaved caspase 3 (apoptosis) and Ki67 (proliferation marker), as detailed in “Methods” section and Supplementary Fig. 2. Each treatment condition was repeated at least three times and measurements for each condition were pooled from at least six spheroid replicates.
To mimic in vivo anti-cancer drugs PK profile at a constant flow rate, an 8-point concentration scale for specific durations was used. Each drug was delivered at a specific concentration, for a specific amount of time, consistent with the average concentration for the same durations in vivo, on a 24-h step schedule.
Each compound concentration/timing represented an average of the corresponding in vivo plasma values, measured by mass spectrometry (Supplementary Methods 4 and 5).
Spheroid viability assessment used a metabolic method (CellTiterGlo 3D, G9681, Promega) by measuring luminescence units expressed by individually recovered spheroids. Each chip bottom polymer film was cut using a scalpel and spheroids were individually collected and transferred in 25 µL media to the wells of a half area 96-well plate (1/2 AreaPlate-96, white, 6002290, Perkin-Elmer). CellTiterGlo vial was allowed to thaw (1 h, room temperature) and 25 µL reagent were added to each spheroid well. Plates were lidded with black sealing tape (Nunc, 731-0750, VWR) and placed on and orbital shaker for 40′. Luminescence levels were measured using a SpectraMax i3X (Molecular Devices, USA).
A general note: ATP-based viability assays read luminescence as a measure of living cells.

In the case of `CCc1c2c(nc3ccc(O)cc13)-c1cc3c(c(=O)n1C2)COC(=O)[C@]3(O)CC` [SN38], the “spheroid size at day 6, fold increase in size over day 1” value in the test on SW620 spheroids [1] (Microfluidic Ibidi chip, PK-profile exposure, 6 days, single spheroids (Fig 2c raw data)) is 2.9097 and 2.688 and 2.723 and 2.5658. Further, in the test on SW620 spheroids [1] (microfluidic chip, SN38 mono (1d), day 7), the “spheroid volume as percentage of untreated control” value worked out at 55%. Besides, the “change in γH2AX compared to the control group” value in the test with γH2AX was “did not observe a significant change”. Moreover, the spheroid viability was 62.9 and 51.36 and 50.85 and 54.46 and 62.33 and 64.07 (2×) in the test on SW620 spheroids [2] (Microfluidic Ibidi chip, 6 days, CellTiterGlo, replicates (Fig 2d raw data), unit not given); 6192690 RLU and 5479774 RLU and 8813513 RLU and 7953995 RLU and 8522809 RLU and 9260029 RLU and 5533818 RLU and 5710166 RLU with SW620 spheroids [2] (microfluidic chip, SN38 mono (1d), day 7, single spheroids). Moreover, the reduction in viability in the test with SW620 spheroids [2] (microfluidic, dosed to mimic in vivo PK profile, 6 days) is listed as ~ 40%.
